The values below are quoted from earlier work in US20240352228A1, “NOVEL FLAME RETARDANT” (Chemische Fabrik Budenheim KG, priority 2021, published 2024).

For the data set the following is noted: general statement in description, no method given.

Bounds are passed on as bounds.

As for `Nc1nc(N)nc(N)n1` [melamine, Melamine], the decomposition temperature is above 350 °C.
